These results are taken from publication PMC9578445, “Association of respiratory failure with inhibition of NaV1.6 in the phrenic nerve” (Channels, 2022).

Like-named read-outs stand apart in the source and are kept apart here.

The IC50 is the point on the concentration scale where inhibition reaches its midpoint.

Series [1] deals with anesthetized male CD rats. Put plainly: Rat Cardiovascular/Respiratory (CV/R) assay. Set-up: ∆ QRS Interval: unit not given here. Particulars: rat, IV infusion. The series is classed as in vivo. How it is done: Male CD Rats were anesthetized with ketamine:xylazine (85 mg/kg:5 mg/kg, im, to effect). The left femoral artery and vein were cannulated for the measurement of blood pressure and the administration of test agent, respectively. The right femoral vein was cannulated for maintenance anesthetic infusion (ketamine:xylazine ~35 mg/kg/hr:1.5 mg/kg/hr, iv, to effect). Needle electrodes were placed subcutaneously at the right axillary and left inguinal areas to record lead II ECGs. When ECG intervals were required to determine effect on cardiac conduction a pacing/recording electrode catheter was advanced through the right jugular vein to pace the heart. ECG intervals were then measured at a fixed cardiac rate of 400 beats/minute to remove any variability of intrinsic heart rate on these parameters.
To determine the test agent-dependent effect on respiratory rate, a tracheotomy was also performed using a short length of polyethylene tubing containing a thermistor (AD Instruments). The change in temperature detected by the thermistor was used to calculate respiratory rate.
(§1) For in vivo CVR and phrenic nerve activity studies, all raw signals were amplified via general purposed biological amplifier (filter settings DC – 3-5 KhZ) then digitized, calibrated and collected at a minimum of 500 Hz (1000 Hz for ECG and 2000 Hz for cardiac electrograms, and 10 KHz for phrenic nerve activity) using Notocord-HEM data acquisition and analysis software. The raw signal was filtered following acquisition with a bandpass filter set to 200–800 Hz). Vehicle (100% dimethylformamdide, DMF) or compound formulated in the vehicle was administered as a 30-minute IV infusion at 0.0167 μL/g body weight/min. Doses were selected to achieve unbound plasma concentrations in range of measured Nav1.6 IC50 values when infused at 0.0167uL/g body weight/min based on measured rat clearance, plasma protein binding and Nav1.6 IC50. Exposure in rats was determined in separate pharmacokinetics experiments where compounds were administered via IV dosing.

Series [2] is described as follows: Plasma exposure in rat CV/R assay. Particulars: rat, rat, IV infusion; for concentration at 15 min / concentration at 30 min: CD, plasma, iv. The series is classed as in vivo.
Excerpt: as §1, with “Doses were selected to achieve unbound plasma concentrations in range of measured Nav1.6 IC50 values when infused at 0.0167uL/g body weight/min based on measured rat clearance, plasma protein binding and Nav1.6 IC50.” left out

The nature of series [3]: Plasma exposure in phrenic nerve activity assay. The series is classed as in vivo. Particulars: rat; for concentration at 15 min / concentration at 30 min / concentration at 10 min: CD, plasma, intravenous; for concentration at 15 min / concentration at 30 min: 10 mg/kg.
Excerpt: as §1

In another series the test system is phrenic nerve. Put plainly: Rat phrenic nerve firing assay. The settings on record: rat in vivo, measured at 30 minutes. How it is done:
To determine direct effects on phrenic nerve activity, male CD rats were anesthetized and instrumented as described above for the CV/R assay. In addition, an incision was made in the ventral neck area and the right phrenic nerve identified anatomically and isolated via blunt dissection. The phrenic nerve was placed over a high impedance bipolar hook electrode and the nerve covered with mineral oil to prevent desiccation. Animals were mechanically ventilated via a tracheotomy (~10 mL/kg, 40–70 breaths/min, titrated individually to stabilize phrenic activity) following neuromuscular block (pancuronium 0.5–1 mg/kg, iv) and bilateral vagotomy to better define test agent effects on phrenic nerve activity. Anesthesia was verified repeatedly following pancuronium administration by testing the BP/HR response to noxious stimuli. Spontaneous electrical activity was continuously recorded and then later rectified and averaged to calculate frequency, width, peak height of bursts, and magnitude. Magnitude of the activity was calculated by taking the absolute value of the raw signal and then averaging that signal over 50 ms increments. The resulting average signal was then converted to magnitude by subtracting the […] for each phrenic burst complex. The resulting magnitude values were then averaged over 1 minute increments to result in the graphs shown. Figure S1 in the Supplemental Information illustrates this analytical procedure.
as §1

Series [4] has as its system rat diaphragm with the phrenic nerve attached. Put plainly: Rat hemisected diaphragm (HMD) assay, ex vivo. An excerpt: Wistar derived male or female rats weighing 450 ± 50 g were euthanized by CO2 overexposure. The diaphragm with the phrenic nerve attached was removed and placed into a tissue recording chamber containing Krebs solution pH 7.4; (composition in g/L: NaCl 6.89, KCl 0.35, CaCl2 0.277, KH2PO4 0.163, MgSO4 · 7H2O 0.296, NaHCO3 2.1 and glucose 1.8). A piece of cotton was attached to the top of the phrenic nerve over the jaw electrodes. A second piece of cotton was attached to the tip of the tendinous tissue at the apex of the diaphragm preparation for attachment to an isometric transducer under 1 g tension. The rib of the diaphragm preparation was secured to the bottom of the jaw electrodes. […] The recording chamber was placed into a water bath kept at a temperature of 32°C by means of a suitable thermoregulator consisting of a thermostat and heating elements in addition to a water circulator.
The isometric transducer was connected to an amplifier and the tissue response was recorded on a two-pen recorder set at 1 volt. Field stimulation [S48 Stimulator (GRASS) set at 0.2 Hz (12 pulses per minute), 0.5 ms pulse duration at 70% of maximum voltage (about 3 to 5 volts)] delivered to two circle platinum electrodes (0.2 cm in diameter) was applied for transmural tissue stimulation. Each tissue preparation was washed three times in Krebs solution every 15 minutes for a 60 minute equilibration period and permitted to develop contractions. D-Tubocurarine (300 µM dissolved in 0.1 mL distilled water for a final 3 µM bath concentration) was added to establish an isometrically recorded control relaxation response ranging from one to two centimeters and corresponding to 60–70% of maximal relaxation. […] The tissue was then washed periodically until the contraction returns to the baseline value.
Sixty minutes later, the test compound was added (e.g. 30 mM in 0.01 mL vehicle of 100% DMSO, for final concentration of 30 µM test compound and 0.1% DMSO). A test compound recorded relaxation response of 50% or more (≥50%) within 5 minutes, relative to the 3 µM d-Tubocurarine control response, indicates neuromuscular blocking activity.

[5] abbreviates: male, 3 mg/kg, 3 mg/kg, read-out: Total [plasma].
Setting [6] is: male, 3 mg/kg, 3 mg/kg, read-out: Unbound [plasma].
Setting [7] is: 30 mg/kg, 11 min, just prior to death.

For the molecule `O=S(=O)(Nc1ncns1)c1cc(F)c(NCC23CCCN2CCC3)cc1F` [SSCI-4], the “∆ Heart Rate” value in series [1] (3 mg/kg, 15 min) is on record as −3.5 bpm; in series [1] (3 mg/kg, 30 min), −5.6 bpm; in series [1] (10 mg/kg, 15 min), 6.6 bpm. Moreover, the “∆ Mean Arterial Pressure” value in series [1] (3 mg/kg, 15 min) is on record as 6.4 mmHg; in series [1] (3 mg/kg, 30 min), 2.4 mmHg; in series [1] (10 mg/kg, 15 min), −5.5 mmHg. Further, the “∆ QRS Interval” value in series [1] (3 mg/kg, 15 min) is listed as 2.4; in series [1] (3 mg/kg, 30 min) it was 4.5; in series [1] (10 mg/kg, 15 min) it was 7.6. The “∆ respiratory rate” value in series [1] (3 mg/kg, 15 min) is −24.7%; in series [1] (3 mg/kg, 30 min), −26.1%; in series [1] (10 mg/kg, 15 min) it was −17.8%; in series [1] (10 mg/kg, 25 min), −100%; in series [1] (30 mg/kg, 11 min), −100%. Also, the concentration at 15 min is 31.5 µM in series [2] (10 mg/kg, 10 mg/kg, read-out: Total [plasma]); 15 µM in series [2] (10 mg/kg, 10 mg/kg, read-out: Unbound [plasma]); 11.4 µM in series [2] (setting [5]); 5.4 µM in series [2] (setting [6]); 55.3 ± 5.5 µM in series [3] (read-out: Total [plasma]); 23.3 ± 2.61 µM in series [3] (read-out: Unbound [plasma]). The concentration at 30 min stood at 17.6 µM in series [2] (setting [5]), 8.4 µM in series [2] (setting [6]), 61.6 µM in series [3] (read-out: Total [plasma]) and 29.3 µM in series [3] (read-out: Unbound [plasma]). Also, the “Total [plasma]” value stood at 39.3a μM in series [2] (10 mg/kg, 25 min, just prior to death); 89.7a μM in series [2] (setting [7]); 108.234 ± 9.606 µM in series [3] (30 mg/kg, 25–33 min). Also, the “Unbound [plasma]” value is 42.7a μM in series [2] (setting [7]) and 51.46 ± 4.56 µM in series [3] (30 mg/kg, 25–33 min). Moreover, the concentration at 10 min in series [3] (30 mg/kg, read-out: Total [plasma]) was found to be 91.4 µM; in series [3] (30 mg/kg, read-out: Unbound [plasma]), 43.5 µM. Moreover, the “percent decrease in the magnitude of the phrenic nerve signal” value with phrenic nerve turned out to be 50%. Besides, the IC50 in series [4] (Rattus norvegicus, relative to 3 μM d-Tubocurarine relaxation = 100%) came to 8.9 µM.

Regarding `COc1cc2c3cc1Oc1cc(ccc1O)C[C@@H]1c4c(cc(OC)c(O)c4Oc4ccc(cc4)C[C@@H]3N(C)CC2)CC[N+]1(C)C` [d-Tubocurarine, D-Tubocurarine, reference compound], the “relaxation, % of the maximal relaxation of the muscle” value in series [4] (3 μM, termed the 100% inhibition level) was 60–70%.
